Assay results: ChEMBL document CHEMBL1144348, “Mechanism of cytotoxicity of copper(I) complexes of 1,2-bis(diphenylphosphino)ethane” (J Med Chem, 2005)
Values after ≈ are worked out from the molar mass of the structure shown.

Legend:
NCI-H460 [1] = assay: Inhibitory concentration against human lung carcinoma cell line H460 after 48 hr in MTT assay; format: functional, cell-based; details: NCI-H460, 48 h
NCI-H460 [2] = assay: Percent of cells with COMET measured after single cell gel electrophoresis with the compound; format: functional, Homo sapiens

Row | IC50 (NCI-H460 [1]) [µg/mL] | SMILES | Activity (NCI-H460 [2]) [%]
1 | 0.25 (≈ 0.627 µM) | c1ccc(P(CCP(c2ccccc2)c2ccccc2)c2ccccc2)cc1 | –
2 | 0.05 (≈ 0.092 µM) | COc1cccc2c1C(=O)c1c(O)c3c(c(O)c1C2=O)C[C@@](O)(C(=O)CO)C[C@@H]3O[C@H]1C[C@H](N)[C@H](O)[C@H](C)O1 [DOXORUBICIN] | 93.55
